Laboratory results as given in patent publication US8071368B2, “Methods for promoting growth and survival of insulin-secreting cells” (Alizé Pharma SAS, priority 2001, dated 2011).
Non-standard residues stand in square brackets, D forms with d. Residues, ends and D or L forms follow the SMILES beside them. No end group written: not given here. *: point of attachment. dTrp(2-Me) = Cc1[nH]c2ccccc2c1C[C@@H](N)C(=O)O; Octanoyl = CCCCCCCC(=O)*

Legend:
[1] = test system: HIT-T15 cells; experiment: HIT-T15 cell proliferation, BrdU incorporation; assay type: cell-based; conditions: for effect on unacylated ghrelin-induced cell proliferation: preincubation, unacylated ghrelin 100 nM, NF449 10 μM, PTX 50 ng/ml
Method: This effect was similar to that observed in cells cultured in normal conditions, i.e. in the presence of serum (15% HS, 2.5% FBS).
To investigate the signaling pathways involved in ghrelin mitogenic effect, the cells were preincubated (30 min) with NF449, a selective Gαs protein-coupled receptor antagonist.
In FIG. 8A to 8E, HIT-T15 cells were cultured in serum-free medium (Control) for 24 h, UAG alone or with NF449 and pertussis toxin (PTX) were added to the incubation medium for further 24 h. In FIG. 8A, cell proliferation was measured by BrdU uptake in cells cultured in the presence or absence of serum, UAG at the concentrations indicated. […] Data are expressed as the percentage relative to control and are the means±SEM of eight replicates within a single representative experiment that was repeated at least 3 times (*P<0.05,**P<0.01).
(§1) In FIG. 9B, apoptosis is evaluated by counting condensed/fragmented Hoechst-stained nuclei (SF, serum-free medium). Values are expressed as percent of apoptotic cells and are the mean±SEM of duplicate determinations (500 cells each) of three independent experiments (*P<0.05; **P<0.01). In FIG. 9C, cell proliferation is assessed by BrdU uptake (ELISA). The results are expressed as percent of control (serum starved cells) and are the mean±SEM of three independent experiments (*P<0.05,**P<0.01). FIG. 9D illustrates ghrelin secretion in HIT-T15 conditioned medium following exposure to either serum, SF±cytokines. The results are the mean±SEM of three independent experiments, each performed in quadruplicate (*P<0.05). In FIG. 9E, apoptosis is determined by Hoechst 33258 of cells cultured for 48 h in the presence of serum or in SF medium alone with addition of an anti-ghrelin antibody (α-ghrelin Ab), (*P<0.05,**P<0.01 vs 0 μg/ml α-ghrelin Ab in each condition).

[2] = test system: HIT-T15 cell membranes; experiment: 125I-[Tyr4]-unacylated ghrelin binding to HIT-T15 cell membranes; conditions: unlabeled competitor
From the text: Binding is expressed as percentage of control (specific binding in the absence of unlabeled competitor);

[3] = preprandial GHS administration in normal human beings with GH receptor antagonist pegvisomant; assay type: in vivo; conditions: 1 μg/Kg i.v. preprandial
From the text: Because in this study GH-action was blocked by pegvisomant, these GHS-mediated metabolic changes on the “gastro-entero-hepatic axis” must be direct and non-pituitary mediated.

[4] = ghrelin and GH rhythms during three days fasting, GHRP-6 bolus, healthy volunteers; assay type: in vivo, human; conditions: 1 μg/kg on the 3rd day of fasting
Method: In order to understand the diurnal rhythms of ghrelin and GH secretion during fasting, a study was conducted on 10 healthy human volunteers with normal body mass index. […] Fasting rapidly induces a diurnal ghrelin rhythm that is followed by a similar GH rhythm. […] This phenomenon cannot be explained by changes in insulin, glucose or free fatty acid levels. Thus it appears that the metabolic effects of ghrelin are distinct from its effects on GH secretion.
By the use of the GH receptor antagonist pegvisomant, indirect evidence was provided that these changes in serum ghrelin levels are not regulated by the GH receptor. Finally, it was shown that administration of the synthetic GHS, GHRP-6, produced a decrease in peak ghrelin levels, but this effect was only observed after several hours, indicating the existence of a long-loop feedback system of GHS's on ghrelin secretion.

[5] = co-administration of unacylated ghrelin and ghrelin in normal human volunteers; assay type: in vivo; conditions: 1 μg/kg iv at 0 min with ghrelin 1 μg/kg iv
From the text: Thus it appears that unacylated ghrelin is acting as a functional antagonist of the peripheral actions of ghrelin.

[6] = 16 h intravenous infusion of unacylated ghrelin in healthy males; assay type: in vivo, human; conditions: 1.0 μg/Kg/h iv 16 h
[7] = test system: HIT-T15 cells; experiment: HIT-T15 cell survival, MTT assay; assay type: cell-based; conditions: serum-free conditions and in the presence of cytokines
[8] = test system: HIT-T15 cells; experiment: HIT-T15 apoptosis, Hoechst 33258 staining; assay type: cell-based
From the text: Apoptosis is the main form of pancreatic β-cell death in animal models of type 1 diabetes mellitus. […] Moreover, they partially lost their capacity to form islet-like structures (FIG. 9A, upper panel, and 9B). Cytokines further increased apoptosis (˜27%), cells appearing smaller and unable to form islets (FIG. 9A, lower panel, and FIG. 9B). […] Accordingly, others have reported that ghrelin exerts proliferative and antiapoptotic effects at high concentrations […] in different cell types.
as §1

[9] = test system: caspase-3; experiment: caspase-3 activation in HIT-T15 cells; assay type: cell-based; conditions: serum-starved and cytokine-treated cells, data not shown
[10] = test system: cAMP; experiment: intracellular cAMP concentration in HIT-T15 cells; assay type: cell-based; conditions: 100 nM, with IBMX
Method: Initially, the unacylated ghrelin-induced cAMP intracellular variation was examined.
cAMP induction by ghrelin was then evaluated at 15 min in either serum-free medium alone or with addition of IFN-γ/TNF-α in the presence of IBMX.
The results are the mean±SEM of three independent experiments performed in triplicate (*P<0.05 vs basal time point). FIG. 10B illustrates the cAMP levels in cells incubated in the presence of serum or in serum-free (SF) medium±unacylated ghrlein (100 nM each) alone or with IFN-γ/TNF-α combination (100 ng/ml and 200 ng/ml respectively). Data are the mean±SEM of at least three independent experiments performed in triplicate (*P<0.05).

[11] = glucose and insulin after single intravenous human ghrelin in healthy young male volunteers; assay type: in vivo; conditions: 1.0 μg/kg i.v. at 0', vs placebo

Compound: O=C(Nc1cc(C(=O)Nc2ccc(S(=O)(=O)O)cc2S(=O)(=O)O)cc(C(=O)Nc2ccc(S(=O)(=O)O)cc2S(=O)(=O)O)c1)Nc1cc(C(=O)Nc2ccc(S(=O)(=O)O)cc2S(=O)(=O)O)cc(C(=O)Nc2ccc(S(=O)(=O)O)cc2S(=O)(=O)O)c1 [NF449, reference compound]
- effect on unacylated ghrelin-induced cell proliferation [1]: complete blockade

Compound: Cc1[nH]c2ccccc2c1C[C@@H](NC(=O)[C@@H](N)Cc1cnc[nH]1)C(=O)N[C@@H](C)C(=O)N[C@@H](Cc1c[nH]c2ccccc12)C(=O)N[C@H](Cc1ccccc1)C(=O)N[C@@H](CCCCN)C(N)=O [hexarelin] (H-H[dTrp(2-Me)]AW[dF]K-NH2)
- competition with 125I-labeled [Tyr4]-unacylated ghrelin for binding sites [2]: competed

Compound: GHRP-6
- serum insulin concentrations ([3]; in the presence of pegvisomant): impressive increase in serum insulin concentrations
- postprandial serum glucose levels ([3]; only in the presence of pegvisomant): induces a postprandial increase in serum glucose levels
- peak ghrelin levels [4]: attenuated peak ghrelin levels in the afternoon

Compound: NH2Gly-Ser-Ser-Phe-Leu-Ser-Pro-Glu-His-Gln-Arg-Val-Gln-Gln-Arg-Lys-Glu-Ser-Lys-Lys-Pro-Pro-Ala-Lys-Leu-Gln-Pro-Arg (H-GSSFLSPEHQRVQQRKESKKPPAKLQPR) [unacylated ghrelin]
- ghrelin-induced decrease in insulin levels [5]: totally prevented
- ghrelin-induced increase in glucose [5]: totally prevented
- FFA profile ([6]; post-prandially and at fasting): reduced both post-prandially (p<0.01) and at fasting
- glucagon profile ([6]; vs saline): significantly modified the profile of all parameters, except glucagon
- total insulin AUC ([6]; vs saline): did not modify
- GH AUC ([6]; vs saline, p<0.01): lower
- cortisol AUC ([6]; vs saline, p<0.01): lower
- free fatty acid (FFA) AUC ([6]; vs saline, p<0.01): decreased
- glucose AUC ([6]; vs saline, p<0.01): decreased
- early insulin response to dinner and breakfast ([6]; dinner p<0.01, breakfast p<0.05): enhanced
- competition with 125I-labeled [Tyr4]-unacylated ghrelin for binding sites [2]: competed
- cell proliferation in the presence of IFN-γ/TNF-α ([1]; 100 nM, cytokines 100 ng/ml and 200 ng/ml, 24 h): dramatically restored cell proliferation
- cell proliferation (BrdU incorporation) ([1]; serum-free medium, 1 pm to 1 μm, 24 h): significantly and dose-dependently induced cell proliferation
- cell viability (MTT) [7]: significantly increased cell viability
- serum-starvation-induced apoptosis ([8]; 100 nm, serum-deprived medium): almost completely prevented
- apoptosis triggered by the IFN-γ/TNF-α combination, percent of apoptotic cells ([8]; 100 nm, cytokines alone ~27%): ~12%
- lowest significantly active concentration, antiapoptotic effect ([8]; data not shown): 1 nm
- caspase-3 activation [9]: significantly reduced
- cAMP levels over time ([10]; serum starved cells, 5 to 60 min): transient increase within 5 min
- cAMP at 15 min ([10]; serum-free medium alone or with IFN-γ/TNF-α): significantly up-regulated cAMP

Compound: ghrelin: gastric hormone of 28 amino acids with an n-octanoyl ester at its third serine residue (GSS(Octanoyl)FLSPEHQRVQQRKESKKPPAKLQPR)
- Δ glucose [11]: elevation in glucose
- Δ insulin [11]: acute decrease in insulin

Compound: pertussis toxin [reference compound]
- effect on unacylated ghrelin-induced cell proliferation [1]: had no effect
